Data on two molecules can be found in patent US20090023681A1, “METHOD OF USING BETA-GLUCAN FROM SCHIZOPHYLLUM COMMUNE” (priority 2007, published 2009).

One assay deals with Staphylococcus aureus. Description: Bacterial inhibition in mouse model, survival after S. aureus septic shock. Format: in vivo, mice. To be noted: 1 mg/mouse peritoneally 3 days and 1 day prior, 1×10^9 S. aureus intravenously, FIG. 6. The procedure:
Skin is directly vulnerable to or may suffer from single infection with various bacteria and about 90% of atopic patients suffer from secondary infections with bacteria such as Staphylococcus spp. Therefore, there is a need for bacterial inhibition and amelioration of infectious diseases. Prior to the test of skin itching due to bacterial infections, this experiment was carried out to test whether beta-glucan has direct synergistic effects on antibacterial activity and antibiotic activity in vivo, using a mouse model.
Erythromycin was used as an antibiotic and Staphylococcus aureus, one of staphylococci as a major cause of skin infections, was used as the test bacteria. Each experimental group was composed of 6 to 7 mice per group. Experiments were carried out as follows.
1) 3 days and I day prior to bacterial challenge, 1 mg/mouse of saline, antibiotic, beta-glucan, or a beta-glucan/antibiotic mixture was peritoneally injected into mice.
2) 30 min prior to bacterial administration, 18 mg/kg of the antibiotic was subcutaneously injected into the mice.
3) Then, 1×10^9 of bacteria (S. aureus) were intravenously injected to induce septic shock.
4) Finally, a survival rate (%) of the animals was periodically confirmed every 12 hours.

The test system of another assay is human skin cells. Briefly: Synthesis of filaggrin by skin cells, Western blotting. Format: cell-based. Particulars: beta-glucan 0.01%, 2 days treatment, FIG. 4. Here is the method: In order to examine production of a natural moisturizing factor (NMF) having an important effect on skin moisturization, synthesis of filaggrin, which is a precursor of the natural moisturizing factor, was tested on human skin cells. First, skin cells were introduced into a culture flask and allowed to adhere to the bottom of the flask. Then, cells were cultured for 2 days by co-addition of 35-S-methionine upon treatment of a test material. After the cultivation was complete, the culture medium was removed and the cells were dissolved in phosphate buffered saline (PBS) containing 2% sodium dodecyl sulfate and 20 mM dithiothreitol (DTT). After the skin cells were cultured, treatment of the cells with the test material was carried out for 2 days. After the test material treatment was complete, the medium was removed, and only the cells were taken and disrupted using an ultrasonic disintegrator to thereby obtain only a protein. Using the thus-obtained protein, an amount of synthesized filaggrin was determined by Western blotting analysis. FIG. 4 is a graph showing an expression amount of filaggrin by Western blotting analysis. Clofibrate was used as a positive control, and beta-glucan was added to a concentration of 0.01% for the test.
(A western blot detects proteins with antibodies after separation by electrophoresis.)

The subject of another assay is hairless mice. Description: Skin moisture loss (TEWL) recovery after acetone-induced skin barrier damage. The assay is classed as in vivo. Here is the method: This experiment was carried out to evaluate effects of beta-glucan on recovery of a skin barrier function loss due to long-term skin damage.
A barrier function of dorsal skin of experimental animals was damaged by periodic application of acetone to the dorsal parts of young hairless mice (10 weeks old) for 3 consecutive days three times a day. Trans-epidermal water loss (TEWL) was measured in the experimental animals. For only the mice having skin with more than 40 g/m′/hr of TEWL, a vehicle (propylene glycol:water=5:5) and a sample containing 0.2% beta-glucan of Example 1 were applied at a dose of 200 μl per 5 cm^2 of a skin area for 3 consecutive days three times a day, and TEWL was measured periodically.

Setting [1] is: at 48 hours after the bacterial infection.
The mark [2] stands for this setting: one week after the bacterial infection.

For `CC[C@H]1OC(=O)[C@H](C)[C@@H](O[C@H]2C[C@@](C)(OC)[C@@H](O)[C@H](C)O2)[C@H](C)[C@@H](O[C@@H]2O[C@H](C)C[C@H](N(C)C)[C@H]2O)[C@](C)(O)C[C@@H](C)C(=O)[C@H](C)[C@@H](O)[C@]1(C)O` [antibiotic, Erythromycin, reference compound], the values for the survival rate entry in the assay with Staphylococcus aureus (setting [1]) and with Staphylococcus aureus (setting [2]) were “all killed” and “all dead”, respectively.

Take “beta-1,6-branched-beta-1,3-glucan [beta-glucan]”: the survival rate is listed as 40% in the assay with Staphylococcus aureus (setting [1]) and “all dead” in the assay with Staphylococcus aureus (setting [2]). The “synthesis of filaggrin in skin cells” value in the assay on human skin cells is reported as “significantly increased”. Also, the “recovery from skin barrier damage compared to vehicle group” value in the assay on hairless mice (0.2% beta-glucan of Example 1, 200 μl per 5 cm^2, 3 days three times a day, FIG. 5) was “rapid recovery”. Also, the “recovery of the trans-epidermal water loss” value with hairless mice (after 10 hours, 0.2% beta-glucan of Example 1 topical) is not below 50%.
